According to patent US20090054428A1, “NOVEL PYRIMIDINE DERIVATIVES 965” (ASTRAZENECA AB, priority 2007, published 2009):
Read-outs that look alike come from different tables or passages of the source.

Assays:
recombinant EphB4 [1] = target: T1, recombinant EphB4 (Homo sapiens, UniProt P54760); assay: biochemical
T1 sequence (P54760 563-987): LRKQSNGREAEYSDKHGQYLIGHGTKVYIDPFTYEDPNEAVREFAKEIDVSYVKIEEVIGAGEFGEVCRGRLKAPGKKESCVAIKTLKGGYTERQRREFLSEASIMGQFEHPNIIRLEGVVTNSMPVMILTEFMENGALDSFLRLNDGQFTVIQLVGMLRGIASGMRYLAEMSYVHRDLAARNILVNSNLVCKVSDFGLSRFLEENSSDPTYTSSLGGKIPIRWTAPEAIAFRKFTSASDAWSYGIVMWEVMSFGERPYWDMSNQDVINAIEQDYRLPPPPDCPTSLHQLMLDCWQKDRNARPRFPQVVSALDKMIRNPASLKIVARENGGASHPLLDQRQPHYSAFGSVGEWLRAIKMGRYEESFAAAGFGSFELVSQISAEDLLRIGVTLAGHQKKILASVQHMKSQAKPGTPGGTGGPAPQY
From the text: (§1) This assay detects inhibitors of EphB4-mediated phosphorylation of a polypeptide substrate using Alphascreen™ luminescence detection technology. […] The reaction was stopped by addition of EDTA, together with streptavidin-coated donor beads which bind the biotin-substrate containing any phosphorylated tyrosine residues. Anti-phosphotyrosine antibodies present on acceptor beads bind to phosphorylated substrate, thus bringing the donor & acceptor beads into close proximity. Subsequent excitation of the donor beads at 680 nm generated singlet oxygen species that interact with a chemiluminescer on the acceptor beads, leading to light emission at 520-620 nm. The signal intensity is directly proportional to the level of substrate phosphorylation and thus inhibition is measured by a decrease in signal.
(§2) To ensure that each well contained a total of 120 nl DMSO the wells were all backfilled as required. […] The test range of compounds was 100× the required final concentration.
(§3) Assay plates were then incubated at room temperature for 1 hour.
(§4) For assays using compounds prepared via acoustic dispensing, the assay mix was adjusted such that the final assay volume of 12 ul contained the same concentration of reagent as 10 ul of assay mix used when aqueous compounds were tested.
(§5) The plates were sealed under natural lighting conditions, wrapped in aluminium foil and incubated in the dark for a further 20 hours.
(§6) The resulting assay signal was determined on the Perkin Elmer EnVision plate reader. The minimum value was subtracted from all values, and the signal plotted against compound concentration to generate IC50 data. The method used to generate the compound dilutions was recorded with the IC50 value in the database.

EphB4 = target: T2, EphB4 (Homo sapiens, UniProt P54760); assay: In vitro EphB4 cell assay (EphB4 phosphorylation ELISA in EphB4-CHO cells); format: cell-based
T2 construct: to generate full-length EphB4 containing a Myc-His tag at the C-terminus; expressed in transfected cells
T2 sequence (P54760 16-987): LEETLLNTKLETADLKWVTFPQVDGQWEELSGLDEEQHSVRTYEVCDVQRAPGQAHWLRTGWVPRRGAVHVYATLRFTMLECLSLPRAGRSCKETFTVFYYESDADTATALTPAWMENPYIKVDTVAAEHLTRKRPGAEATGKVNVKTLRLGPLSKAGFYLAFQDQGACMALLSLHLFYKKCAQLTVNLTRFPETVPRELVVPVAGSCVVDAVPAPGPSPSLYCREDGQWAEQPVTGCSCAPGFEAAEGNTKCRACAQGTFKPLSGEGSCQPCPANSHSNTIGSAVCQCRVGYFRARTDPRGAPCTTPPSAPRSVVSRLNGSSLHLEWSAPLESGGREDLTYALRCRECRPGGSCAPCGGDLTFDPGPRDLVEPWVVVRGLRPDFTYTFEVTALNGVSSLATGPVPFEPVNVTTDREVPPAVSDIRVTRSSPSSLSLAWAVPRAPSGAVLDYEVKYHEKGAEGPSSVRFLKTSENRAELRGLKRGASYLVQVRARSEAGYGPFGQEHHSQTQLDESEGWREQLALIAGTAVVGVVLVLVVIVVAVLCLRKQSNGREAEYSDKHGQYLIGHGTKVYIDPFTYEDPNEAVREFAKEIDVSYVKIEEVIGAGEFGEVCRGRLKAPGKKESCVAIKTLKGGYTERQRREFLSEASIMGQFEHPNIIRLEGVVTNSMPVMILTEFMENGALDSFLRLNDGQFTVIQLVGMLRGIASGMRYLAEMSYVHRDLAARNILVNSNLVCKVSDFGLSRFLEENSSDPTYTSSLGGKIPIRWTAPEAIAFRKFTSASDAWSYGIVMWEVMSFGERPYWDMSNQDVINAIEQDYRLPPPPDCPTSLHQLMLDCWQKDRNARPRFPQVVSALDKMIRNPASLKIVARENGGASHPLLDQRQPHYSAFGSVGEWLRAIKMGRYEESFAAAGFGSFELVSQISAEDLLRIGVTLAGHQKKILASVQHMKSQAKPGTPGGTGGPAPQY
Procedure: The assay identifies inhibitors of cellular EphB4 by measuring a decrease in phosphorylation of EphB4 following treatment of cells with compound. The endpoint assay used a sandwich ELISA to detect EphB4 phosphorylation status. Briefly, Myc-tagged EphB4 from treated cell lysate was captured on the ELISA plate via an anti-c-Myc antibody. The phosphorylation status of captured EphB4 was then measured using a generic phosphotyrosine antibody conjugated to HRP via a colourimetric output catalysed by HRP, with level of EphB4 phosphorylation directly proportional to the colour intensity. Absorbance was measured spectrophotometrically at 450 nm.
Full length human EphB4 (Swiss-Prot Acc. No. P54760) was cloned using standard techniques from cDNA prepared from HUVEC using RT-PCR. The cDNA fragment was then sub-cloned into a pcDNA3.1 expression vector containing a Myc-His epitope tag to generate full-length EphB4 containing a Myc-His tag at the C-terminus (Invitrogen Ltd. Paisley, UK). […] CHO-K1 cells were engineered to stably express the EphB4-Myc-His construct using standard stable transfection techniques, to generate cells hereafter termed EphB4-CHO. […]
Plates were washed twice with PBS/0.05% Tween-20 and incubated with 100 μl/well cell lysate overnight at 4° C. […] The absorbances were determined at 450 nm using the Tecan SpectraFluor Plus. […]

recombinant EphB4 [2] = target: T1, recombinant EphB4; details: read-out: EphB4 enzyme assay Mean IC50 value; Method of compound preparation: Genesis (aqueous compound preparation); * = tested once only
From the text: as §1, §2, §3, §4, §5, §6

[3] = EphB4 enzyme assay Mean IC50 value, Method of compound preparation: Genesis (aqueous compound preparation), * = tested once only
[4] = EphB4 enzyme assay Mean IC50 value, Method of compound preparation: Echo (acoustic dispensing), * = tested once only

Compound | IC50 (recombinant EphB4 [1]; [3]) [nM] | IC50 (recombinant EphB4 [1]; [4]) [nM] | further results
Cc1cccc(N(C)c2ccnc(Nc3cc(N4CCOCC4)cc(N4CCOCC4)c3)n2)n1 [Example 11, N-[3,5-di(morpholin-4-yl)phenyl]-N′-methyl-N′-(6-methylpyridin-2-yl)pyrimidine-2,4-diamine] | > 14400 | 207 | 
Cc1ccc(CO)nc1N(C)c1ccnc(Nc2cc(N3CCOCC3)cc(N3CCOCC3)c2)n1 [Example 10, (6-((2-(3,5-dimorpholinophenylamino)pyrimidin-4-yl)(methyl)amino)-5-methylpyridin-2-yl)methanol] |  | 141 | 
CN(c1cncc(Cl)c1)c1ccnc(Nc2cc(N3CCOCC3)cc(N3CCOCC3)c2)n1 [Example 3, N′-(5-chloropyridin-3-yl)-N-(3,5-dimorpholin-4-ylphenyl)-N′-methyl-pyrimidine-2,4-diamine] | 49 | 11.6 | 
COc1cnc(Cl)c(N(C)c2ccnc(Nc3cc(N4CCOCC4)cc(N4CCOCC4)c3)n2)c1 [Example 9, N′-(2-chloro-5-methoxy-pyridin-3-yl)-N-(3,5-dimorpholin-4-ylphenyl)-N′-methyl-pyrimidine-2,4-diamine] |  | 10.7 | 
CN(c1cccc(Cl)n1)c1ccnc(Nc2cc(N3CCOCC3)cc(N3CCOCC3)c2)n1 [Example 4, N′-(6-chloropyridin-2-yl)-N-(3,5-dimorpholin-4-ylphenyl)-N′-methyl-pyrimidine-2,4-diamine] | 611 |  | 
CN(c1cc(Cl)ccn1)c1ccnc(Nc2cc(N3CCOCC3)cc(N3CCOCC3)c2)n1 [Example 2a, N′-(4-chloropyridin-2-yl)-N-(3,5-dimorpholin-4-ylphenyl)-N′-methyl-pyrimidine-2,4-diamine] |  |  | IC50 (EphB4): 197 nM; IC50 (recombinant EphB4 [1]; IC50 in assay A, method of compound preparation not stated): 405 nM
Cc1ncc(CO)cc1N(C)c1ccnc(Nc2cc(N3CCOCC3)cc(N3CCOCC3)c2)n1 [Example 13, [5-[[2-[[3,5-di(morpholin-4-yl)phenyl]amino]pyrimidin-4-yl]-methylamino]-6-methylpyridin-3-yl]methanol] |  | 66.9 | 
CN(c1ccc(Cl)nc1)c1ccnc(Nc2cc(N3CCOCC3)cc(N3CCOCC3)c2)n1 [Example 6, N4-(6-chloropyridin-3-yl)-N2-(3,5-dimorpholinophenyl)-N4-methylpyrimidine-2,4-diamine] | 201 |  | 
Cc1ccc(N(C)c2ccnc(Nc3cc(N4CCOCC4)cc(N4CCOCC4)c3)n2)nc1 [Example 12, N-[3,5-di(morpholin-4-yl)phenyl]-N′-methyl-N′-(5-methylpyridin-2-yl)pyrimidine-2,4-diamine] | 250 | 158 | 
N′-(4-chloropyridin-4-yl)-N-(3,5-dimorpholin-4-ylphenyl)-N′-methyl-pyrimidine-2,4-diamine [Example 2b] |  |  | IC50 (recombinant EphB4 [2]): 207 nM

Further lines, with some results ahead:

IC50 (recombinant EphB4 [1]; [3]) [nM] | IC50 (recombinant EphB4 [1]; [4]) [nM] | Compound | further results
166 |  | Cc1cc(N(C)c2ccnc(Nc3cc(N4CCOCC4)cc(N4CCOCC4)c3)n2)cnc1Cl [Example 8b, N′-(6-chloro-5-methyl-pyridin-3-yl)-N-(3,5-dimorpholin-4-ylphenyl)-N′-methyl-pyrimidine-2,4-diamine] | 
106 |  | COc1cc(N(C)c2ccnc(Nc3cc(N4CCOCC4)cc(N4CCOCC4)c3)n2)cnc1Cl [Example 8a, N′-(6-chloro-5-methoxy-pyridin-3-yl)-N-(3,5-dimorpholin-4-ylphenyl)-N′-methyl-pyrimidine-2,4-diamine] | 
116 |  | Cc1ccc(N(C)c2ccnc(Nc3cc(N4CCOCC4)cc(N4CCOCC4)c3)n2)cn1 [Example 7a, N-(3,5-dimorpholin-4-ylphenyl)-N′-methyl-N′-(6-methylpyridin-yl)pyrimidine-2,4-diamine] | 
384 |  | Cc1cnc(C)c(N(C)c2ccnc(Nc3cc(N4CCOCC4)cc(N4CCOCC4)c3)n2)c1 [Example 7c, N′-(2,5-dimethylpyridin-3-yl)-N-(3,5-dimorpholin-4-ylphenyl)-N′-methyl-pyrimidine-2,4-diamine] | 
 | 4.37 | COc1cnc(C)c(N(C)c2ccnc(Nc3cc(N4CCOCC4)cc(N4CCOCC4)c3)n2)c1 [Example 7d, N-(3,5-dimorpholin-4-ylphenyl)-N′-(5-methoxy-2-methyl-pyridin-3-yl)-N′-methyl-pyrimidine-2,4-diamine] | 
